Test results taken from patent publication US20240139126A1, “NUTRITIONAL COMPOSITIONS FOR SKELETAL MUSCLE” (MITOCHOLINE LTD, priority 0001, published 2024).

What was measured:
[1] = system: dexamethasone-treated primary myotubes; test: Energy capacity of primary myotubes in dexamethasone-induced sarcopenia cell culture model; assay type: cell-based, rat; conditions: in words; for time until cell total energy exhaustion and collapse: IAA 20 μM + oligomycin 2 μg/ml; for energy capacity / energy depletion compared to control cells: IAA + oligomycin
Protocol: Primary rat myocyte cultures were prepared as described by Yao G., et al. ((Yao G., et. al. (2011) J Cell Sci v.124: 4194-4202. doi: 10.1242/jcs.088260).
All experiments were performed with 5-11 days cultured cells.
To test energetic capacity of cultures myotubes in atrophic conditions, myocyte cultures were differentiated for 5 days followed incubation in the presence of 1, 10, and 100 μM dexamethasone for 24 h.
All cultures were treated with an inhibitor of the ATP production in cellular cytoplasm via glycolysis, Iodoacetic Acid (IAA) (20 μM), and an inhibitor of the ATP production in mitochondria by oxidative phosphorylation, oligomycin (2 μg/ml). […] The cellular concentration of both cations can be indirectly measured by measuring fluorescence of Mag Fura-2 dye.

primary myotubes [2] = test: Mitophagy/autophagy: co-localization of mitochondria and lysosomes in primary myotubes; assay type: cell-based, rat; conditions: blend 50 μM DiSu+20 μM NAM; individual compounds in corresponding molar amounts
Protocol: (§1) Primary Skeletal Muscle Cell culture. Primary myotube cells were obtained from postnatal day 0-2 (P0-P2) rat pups which were sacrificed by decapitation. Briefly, the rats were immersed in 70% ethanol and the hind-limbs removed under a dissection microscope, in dissection solution containing Dulbecco's Phosphate Buffered Saline (PBS) with penicillin streptomycin (5000 units/ml) and Amphotericin B (2.5 mg/L). The tissues were then digested in 0.2% collagenase solution at 37° C. for 30-40 minutes. The reaction was stopped by adding 2-3 ml fetal bovine serum (FBS), and the tissue suspension was centrifuged at 2010 rpm (700 g) for 10 minutes. The cell pellet was resuspended in pre-warmed growth medium, Dulbecco's modified Eagle's medium (DMEM), containing 20% FBS, 100 i.u./ml penicillin and 200 i.u./ml streptomycin], and plated on 22 mm coverslips that were pre-coated with 0.2% gelatin for 1 hour at 37° C. Cells were then cultured in a humidified CO2 incubator (5% CO2 in air) at 37° C. After 2 or 3 days, the medium was changed to a low-serum medium (DMEM containing 10% FBS without antibiotics), and was subsequently renewed every 3 or 4 days. All experiments were performed in vitro between days 2 and 11 in culture when spindle-shaped myoblasts had proliferated and aligned themselves for fusion (˜70% confluency).

primary myotube cultures = test: Mitochondrial membrane potential (TMRM fluorescence) in primary myotube cultures; assay type: cell-based, rat; conditions: DiSu 50 μM; NAM 20 μM
Protocol: Primary myotube cells were obtained from postnatal day 0-2 (P0-P2) rat pups which were sacrificed by decapitation. Briefly, the rats were immersed in 70% ethanol and the hind-limbs removed under a dissection microscope, in dissection solution containing Dulbecco's Phosphate Buffered Saline (PBS) with penicillin streptomycin (5000 units/ml) and Amphotericin B (2.5 mg/L). The tissues were then digested in 0.2% collagenase solution at 37° C. for 30-40 minutes. The reaction was stopped by adding 2-3 ml fetal bovine serum (FBS), and the tissue suspension was centrifuged at 2010 rpm (700 g) for 10 minutes. The cell pellet was resuspended in pre-warmed growth medium, Dulbecco's modified Eagle's medium (DMEM), containing 20% FBS, 100 i.u./ml penicillin and 200 i.u./ml streptomycin], and plated on 22 mm coverslips that were pre-coated with 0.2% gelatin for 1 hour at 37° C. […]
Tetramethyl rhodamine methyl ester (TMRM) was used to study the changes of the mitochondrial membrane potential (Δψm). […] TMRM fluorescence was excited at 543 nm (HeNe laser), and emission was measured at >560 nm. […] Therefore, the changes in potential are reflected by changes in fluorescence intensity within the mitochondria which is measured after thresholding out the background signal from the cytosol to give a mean value per pixel within the mitochondrial population of a cell. […]

primary myotubes [3] = test: NADH autofluorescence: redox index and mitochondrial pool of NADH in primary myotubes; assay type: cell-based, rat; conditions: blends 100 μM DiSu+40 μM NAM, 50 μM DiSu+20 μM NAM, choline 100 μM, succinate 50 μM
Protocol: as §1
NADH autofluorescence was excited at 351 and measured at 375-470 nm.

[4] = system: adult onset mitochondrial myopathy patients; design: dose or concentration left out as unconfirmed; conditions: cited from earlier work
mice = conditions: dietary supplementation; cited from earlier work

| Molecule | time until cell total energy exhaustion and collapse [1] | autophagy (co-localization of mitochondria and lysosomes) (primary myotubes [2]) | TMRM fluorescence compared to control (primary myotube cultures) | redox index (NADH-dependent mitochondrial respiration) (primary myotubes [3]) | energy capacity / energy depletion compared to control cells [1] | blood and muscle NAD levels, muscle strength and mitochondrial biogenesis [4] | endurance exercise ability (mice) |
| --- | --- | --- | --- | --- | --- | --- | --- |
| CN(CC(=O)O)C(=N)N [creatine] | extended the time until cell total energy exhaustion and collapse | – | – | – | – | – | – |
| C[N+](C)(C)CCO.C[N+](C)(C)CCO.O=C([O-])CCC(=O)[O-] [DiSu, dicholine succinate] | extended the time until cell total energy exhaustion and collapse | significantly increase autophagy | increase in TMRM fluorescence | – | – | – | – |
| NC(=O)c1cccnc1 [NAM, nicotinamide] | – | not | increase in TMRM fluorescence | did not induce significant changes | Neither choline or succinate or NAM treatments had a noticeable effect | increased in all human subjects | – |
| O=C([O-])CCC(=O)[O-].[Na+].[Na+] [Succinate*, Sodium succinate (salt)] | – | not | – | did not induce significant changes | Neither choline or succinate or NAM treatments had a noticeable effect | – | increased endurance exercise ability |
| Choline bitartrate [Choline**] | – | not | – | – | – | – | – |
